According to patent US9814696B2, “Use of coumarin derivatives for the preparation of drugs for treating skin diseases” (UNIVERSITE PIERRE ET MARIE CURIE (PARIS 6), priority 2011, dated 2017):
Like-named read-outs stand apart in the source and are kept apart here.

Assays:
KLK5 = molecular target: T1, KLK5 (Homo sapiens, UniProt Q9Y337); experiment: KLK5 enzyme inhibition assay, fluorogenic substrate Boc-Val-Pro-Arg-AMC; type: biochemical; settings: for IC50: 37° C., 15 min of incubation, pH 8
T1 sequence (Q9Y337 23-293): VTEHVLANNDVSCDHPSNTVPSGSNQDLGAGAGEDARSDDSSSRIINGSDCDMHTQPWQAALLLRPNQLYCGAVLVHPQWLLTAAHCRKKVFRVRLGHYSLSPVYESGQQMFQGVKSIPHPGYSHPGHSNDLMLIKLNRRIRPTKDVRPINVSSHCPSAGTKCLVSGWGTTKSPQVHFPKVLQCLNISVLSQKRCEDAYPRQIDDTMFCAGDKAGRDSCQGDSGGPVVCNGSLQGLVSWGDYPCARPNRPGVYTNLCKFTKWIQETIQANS
Description: (§1) Kallikreins KLK5, KLK7 and KLK14 activities were determined by monitoring the hydrolysis of the appropriate fluorogenic substrate (λexc=355, λem=460 nm) for 15 min at 37° C. in the presence of the untreated kallikrein (control) or kallikrein that had been incubated with a test compound. Substrate and compounds were previously dissolved in DMSO, with the final solvent concentration kept constant at 2% (v/v) (KLK 5 and 14), and 4% (v/v) (KLK7). The composition of the activity buffers (pH 8.0) was 100 mM Tris-HCl, 150 mM NaCl, 0.01% (v/v) Tween 20 for the KLK5 assay, and 100 mM Tris-HCl, 1M NaCl, 0.01% (v/v) Tween 20 in the KLK 7 and 14 assays. The final concentrations were 0.6 nM (KLK5) and 100 μM (Boc-Val-Pro-Arg-AMC) (KLK5 assay), 8 nM (KLK7) and 40 μM (Suc-Leu-Leu-Val-Tyr-AMC, AMC: 7-amino-4-methyl-coumarin) (KLK7 assay), and 0.17 nM (KLK14) and 10 μM (Boc-Val-Pro-Arg-AMC) (KLK14 assay). Using the appropriate substrate, the coumarinic compounds (0.01-100 μM) were tested in duplicate for each inhibitor concentration to detect their inhibitory potential. The enzyme and the inhibitors were incubated for 15 min before the determination of the enzyme activity. Initial rates determined in control experiments (V0) were considered to be 100% of the peptidase activity; initial rates below 100% were considered to be inhibitions. The inhibitory activity of compounds was expressed as IC50 (inhibitor concentrations giving 50% inhibition). The values of IC50 were calculated by fitting the experimental data to the equation: % Inhibition=100×(1−Vi/V0)=100[I]0/(IC50+[I]0), or equation: % Inhibition=100[I]0^nH/(IC50^nH+[I]0^nH),nH is the Hill number.
(§2) The tests were realized at 37° C. after 15 min of incubation at pH 8.

KLK14 = molecular target: T2, KLK14 (Homo sapiens, UniProt Q9P0G3); experiment: KLK14 enzyme inhibition assay, fluorogenic substrate Boc-Val-Pro-Arg-AMC; type: biochemical; settings: 37° C., 15 min of incubation, pH 8
T2 sequence (Q9P0G3 25-251): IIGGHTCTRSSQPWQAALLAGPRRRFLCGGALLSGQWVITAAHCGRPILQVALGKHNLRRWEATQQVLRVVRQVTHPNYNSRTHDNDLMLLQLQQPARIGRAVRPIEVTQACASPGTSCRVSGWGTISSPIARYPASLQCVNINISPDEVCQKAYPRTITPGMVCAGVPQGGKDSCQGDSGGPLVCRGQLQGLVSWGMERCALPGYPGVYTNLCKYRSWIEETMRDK
Description: as §1, §2

[1] = test system: normal human keratinocytes; experiment: Neutral red uptake (NRU) cytotoxicity test / cell viability; type: cell-based; design: cytotoxicity, neutral red uptake test (FIG. 5): dose or concentration left out as unconfirmed; settings: 48 h, human normal keratinocytes
Excerpt: The NRU cytotoxicity assay procedure is a cell survival/viability chemosensitivity assay based on the ability of viable cells to incorporate and bind neutral red (NR), a supravital dye. NR is a weak cationic dye that readily penetrates cell membranes by non-ionic diffusion and accumulates intracellularly in lysosomes. Alterations of the cell surface or the sensitive lysosomal membrane lead to lysosomal fragility and other changes that gradually become irreversible. Such changes caused by the action of xenobiotics result in a decreased uptake and binding of NR. It is thus possible to distinguish between viable, damaged, or dead cells, which is the basis of this assay. After treatment with the small-molecules inhibitors, NR uptake in cells will be measured by spectrophotometry at 540±10 nm.
Keratinocytes from healthy persons or patients with Netherton syndrome are seeded at the density of 4000 cells in 125 μL of medium per well in 96-well plates.
After seeding, cells are incubated for 48 hours in the following experimental conditions: 37° C.±1° C., 90%±5.0% humidity, and 5%±1% CO2/air. This incubation period allows for cell recovery and adherence and progression to exponential growth phase.
Prepare inhibitors solutions 2-fold more concentrated than desired. Add 125 μL of these solutions to the wells without changing or removing the medium (125 μL).
48 h hours after the beginning of the treatment, carefully remove the medium (containing the tested inhibitor) and rinse the cells very carefully with 250 μL pre-warmed PBS.
Add 250 μL NR medium and incubate (37° C.±1° C., 90%±5% humidity, and 5.0%±1% CO2/air) for 3±0.1 h. NR medium is the culture medium containing 33 μg/mL of NR. After incubation, remove the NR medium, and carefully rinse cells with 250 μL pre-warmed PBS.
Measure the absorption (within 60 minutes after adding NR Desorb solution) of the resulting colored solution at 540 nm±10 nm in a microtiter plate reader (spectrophotometer), using the blank as a reference.
A calculation of cell viability expressed as NRU is made for each concentration of the tested inhibitor by using the mean NRU of the three replicate values per each concentration. This value is compared with the mean NRU of all vehicle values. Relative cell viability is then expressed as percent of untreated vehicle control (DMSO).
Normal human keratinocytes were seeded in a 96-well tissue culture plate. At 20% of confluence, molecules were added in the culture medium and incubated for 48 h. Neutral red medium was added to every well for an incubation period of 3 h, then the dye was extracted with acidified ethanol solution. Data (FIGS. 2 and 3) represent the mean cell viability after treatment +/−SD compared to mean viability of cells treated with the vehicle only (DMSO). Data represent the mean of 5 individual experiments.

[2] = test system: keratinocytes from a Netherton syndrome patient (NSK); experiment: Expression of pro-allergic and inflammatory molecules (indirect KLK5 activity) in Netherton syndrome patient keratinocytes; type: cell-based, human; settings: 1 μM, 72 h, relative to HPRT
Description: 250,000 keratinocytes from a Netherton syndrome patient (NSK) were seeded in 6 well plates in 2 mL of medium made of: (a) half of complete Green medium: (Dulbecco's Modified Eagle Media) 60%; Ham's F12 30%; FCS 10%; adenin […]; insulin 5 μg/mL; hydrocortisone 0.4 μg/mL; cholera toxin 10 nM; triiodothyronin 2 nM; human recombinant EGF 10 ng/mL; penicillin G/streptomycin 100 U/mL; (b) half of a basal medium (Epilife—Cascade Biologics).
When confluent, cells were washed 5 times with PBS and 2 mL of complete Green medium without FCS (fetal calf serum) were added per well.
Inhibitors were added in the culture medium 24 h after medium renewal.
350 μL of RLT lysis buffer (Mini Kit QIAGEN)+β-mercapto-ethanol (0.1%) were added per well to extract total RNA. The cell lysate was kept at −80° C. before RNA extraction (Mini Kit QIAGEN).
In this in cellulo test, KLK5 activity was evaluated by an indirect method. Indeed KLK5 induces TSLP (thymic stromal lymphopoietin), TNFα (tumor necrosis factor alpha) and IL-8 (interleukin 8) expression. If KLK5 activity is inhibited, the expression of these cytokines will be reduced.
The relative amount of TSLP, TNFα and IL-8 transcripts [relative to HPRT (hypoxanthine phosphoribosyltransferase 1) housekeeping gene] was compared between cells treated or not treated with the inhibitors. The ratio <<treated/not treated>> relative to housekeeping gene reflects KLK5 inhibition.
Their expression had also been studied even if their mechanism of induction is not known yet.
The effect of LP73 and CFL33 on the expression of the described pro-allergic and inflammatory cytokines was analyzed on keratinocytes from two different NS patients. Each experiment was performed twice (FIG. 4).

KLK7 = KLK7 (Homo sapiens, UniProt P49862); experiment: KLK7 enzyme inhibition assay, fluorogenic substrate Suc-Leu-Leu-Val-Tyr-AMC; type: biochemical; settings: for selective activity against enzyme: KLK7: Table B, among KLK5, KLK7 and KLK14
Sequence of KLK7 (P49862 30-253): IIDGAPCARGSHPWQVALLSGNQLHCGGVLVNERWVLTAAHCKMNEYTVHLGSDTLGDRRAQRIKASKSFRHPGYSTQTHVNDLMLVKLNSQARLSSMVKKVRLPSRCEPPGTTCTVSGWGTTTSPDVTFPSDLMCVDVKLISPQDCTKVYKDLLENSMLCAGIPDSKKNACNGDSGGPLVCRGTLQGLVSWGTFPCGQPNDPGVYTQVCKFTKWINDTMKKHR
Description: as §1, §2

[3] = test system: total protease activity of transgenic KLK5 mice skin section; experiment: In situ zymography on transgenic KLK5 mice skin section; type: biochemical; settings: 5 μM
Description: FIG. 6 illustrates the effect of JFR9 compound (5 μM) efficacy on the total protease activity of transgenic KLK5 mice skin section, by in situ zymography.
The protease activity is shown with a gradient of fluorescence. The fluorescence intensity represents the cleavage efficiency of a casein substrate coupled to a FITC group.
JFR9 efficacy has been assayed on transgenic KLK5 mice skin section by in situ zymography (FIG. 6). These mice overexpress KLK5 and reproduce the phenotypic characteristics of Netherton syndrome.

[4] = 37° C., 15 min of incubation, pH 8

O=C(Oc1nccc2ccccc12)c1cc2ccccc2oc1=O [CFL33, Isoquinolin-1-yl 2-oxo-2H-1-benzopyran-3-carboxylate]
IC50 (KLK5; Table A, read-out: IC50 (μM) KLK5): 7 ± 0.4 µM | selective activity against enzyme: KLK5 (KLK5; Table B, among KLK5, KLK7 and KLK14): KLK5 | inhibition at 100 µM (KLK14; 100 μM): 61% | cytotoxicity, neutral red uptake test ([1]; 1 and 10 μM): No noticeable cytotoxicity | expression of IL-8 [2]: significantly inhibited | expression of MDC [2]: significantly inhibited | expression of TARC [2]: significantly inhibited

O=C(Oc1cccc2ccccc12)c1cc2ccccc2oc1=O [JFR1, 1-Naphthyl 2-oxo-2H-1-benzopyran-3-carboxylate]
inhibition at 50 µM (KLK7; [4]): 53% | selective activity against enzyme: KLK7 (KLK7): KLK7 | melting point: 159 to 160 °C

O=C(Oc1ccc(Cl)cc1)c1cc2cc(CF)ccc2oc1=O [JFR7, 4-Chlorophenyl 6-fluoromethyl-2-oxo-2H-1-benzopyran-3-carboxylate]
inhibition at 50 µM (KLK7; [4]): 30% | selective activity against enzyme: KLK7 (KLK7): KLK7 | melting point: 216 to 218 °C

O=C(Oc1cccc(Cl)c1)c1cc2cc(CBr)ccc2oc1=O [JFR9, 3-Chlorophenyl 6-bromomethyl-2-oxo-2H-1-benzopyran-3-carboxylate]
IC50 (KLK5; Table A2, read-out: IC50 (nM) KLK5): 0.92 ± 0.07 µM | IC50 (KLK7; Table A2, 37° C., 15 min of incubation, pH 8, read-out: IC50 (nM) KLK7): 63.7 ± 1.7 nM | selective activity against enzyme: KLK7 (KLK7): KLK7 | IC50 (KLK14; Table A2, read-out: IC50 (nM) KLK14): 2900 ± 100 nM | cytotoxicity, neutral red uptake test (FIG. 5) [1]: No noticeable cytotoxicity | total protease activity of skin section (casein-FITC cleavage) [3]: decreased significantly

O=C(Oc1ccc2ccccc2c1)c1cc2ccccc2oc1=O [JFR2, 2-Naphthyl 2-oxo-2H-1-benzopyran-3-carboxylate]
inhibition at 50 µM (KLK7; [4]): 30% | selective activity against enzyme: KLK7 (KLK7): KLK7 | melting point: 166 to 167 °C
